Patent US20230116978A1, “METHOD FOR LIBERATING INTRACELLULAR MATERIAL FROM PLANT CELLS” (Deerland Enzymes, Inc., priority 2021, published 2023)

How the values were obtained:
[1] = Total antioxidant capacity, Folin-Ciocalteu assay (total phenolics assay); settings: for Total antioxidant capacity: Folin-Ciocalteu, gallic acid reference
Procedure: Total antioxidant capacity was tested in the Folin-Ciocalteu assay (also known as the total phenolics assay). This assay makes use of the Folin-Ciocalteu reagent to measure antioxidants. The assay is performed by adding the Folin-Ciocalteu's phenol reagent to serial dilutions of extract, thoroughly mixing, and incubating for 5 minutes. Sodium carbonate is added, starting a chemical reaction producing a color. The reaction is allowed to continue for 30 minutes at 37° C. Optical absorbance is measured at 765 nm in a colorimetric plate reader. Gallic acid is used as a reference standard, and the data reported in Gallic Acid Equivalents per gram product.

human RBC = assay: Cellular antioxidant protection, CAP-e bioassay; assay type: cell-based; settings: for Cellular antioxidant Protection (CAP-e value): human RBC, AAPH oxidation
Procedure: Cell-based antioxidant protection was measured via a CAP-e bioassay. […] The CAP-e bioassay was specifically designed to work with natural products and ingredients. The red blood cell (RBC) was used as the model cell type as it is an inert cell type, in contrast to other cell types such as PMN cells. The red blood cell-based assay was developed particularly to be able to assess antioxidants from complex natural products in a cell-based system, as well as help interpret subsequent data from more complex cellular models. Freshly purified human RBC are washed repeatedly in physiological saline, and then exposed to the test products. During the incubation with a test product, any antioxidant compounds able to cross the cell membrane can enter the interior of the RBC. Then the RBC are washed to remove compounds that were not absorbed by the cells, and loaded with the DCF-DA dye, which turns fluorescent upon exposure to reactive oxygen species (ROS). Oxidation is triggered by addition of the peroxyl free radical generator AAPH. The fluorescence intensity is evaluated. The low fluorescence intensity of untreated control cells serves as a baseline, and RBC treated with AAPH alone serve as a positive control for maximum oxidative damage. […] Based on the low fluorescence of the untreated control wells, and the high fluorescence of the cell cultures exposed to oxidative damage, the fluorescence intensity in cell cultures treated with test products prior to exposure to oxidative stress is used to calculate the percent inhibition of cellular oxidative stress.

[2] = tested on: human polymorphonuclear (PMN) cells; assay: ROS formation by inflammatory PMN cells (H2O2-triggered, DCF-DA, flow cytometry); assay type: cell-based; settings: for effect on ROS formation by PMN cells (anti-/pro-inflammatory), in words: H2O2-triggered ROS
Text: In measuring the effect on free radical formation by inflammatory cells, human polymorphonuclear (PMN) cells were used for testing effects of a product on ROS formation. PMN cells constitute approximately 70% of the white blood cells in humans. PMN cells produce high amounts of ROS upon certain inflammatory stimuli. Natural products may affect PMN cell ROS formation by three different mechanisms: 1. […] Triggering an anti-inflammatory cellular signal, leading to reduced ROS formation; 3. Triggering an immune reaction, leading to enhanced ROS formation. The effects of test products were measured by exposing freshly purified human PMN cells to the test products. During the incubation with a test product, any antioxidant compounds able to cross the cell membrane can enter the interior of the PMN cells, and compounds that trigger a signaling event can do so. Then the cells are washed, loaded with the DCF-DA dye, which turns fluorescent upon exposure to ROS. Formation of ROS is triggered by addition of H2O2. The fluorescence intensity of the PMN cells is evaluated by flow cytometry. The low fluorescence intensity of untreated control cells serves as a baseline and PMN cells treated with H2O2 alone serve as a positive control. […] The testing was performed on cells from a healthy donor. […]

N[C@@H](CCC(=O)N[C@@H](CS)C(=O)NCC(=O)O)C(=O)O [L-glutathione, reduced]
total antioxidant capacity, comparison in words [1]: had more antioxidant capacity than SOLARPLAST®
Total antioxidant capacity [1]: 153 mg GAE per gram
cellular antioxidant protection, comparison in words (human RBC): had more antioxidant capacity than SOLARPLAST®
Cell lysing (human RBC; highest concentration tested): Cell lysing occurred
Cellular antioxidant Protection (CAP-e value) (human RBC): 619 μM GA/gram
effect on ROS formation by PMN cells (anti-/pro-inflammatory), in words [2]: less anti-inflammatory capacity than the SOLARPLAST® post-aqueous fraction
effect on ROS formation by PMN cells at the highest/higher doses ([2]; highest or higher doses): robust increase in ROS formation

Oc1ccc(C=Cc2cc(O)cc(O)c2)cc1 [Resveratrol]
cellular antioxidant protection, comparison in words (human RBC): had more antioxidant capacity than SOLARPLAST®
Cellular antioxidant Protection (CAP-e value) (human RBC): 235 μM GA/gram
effect on ROS formation by PMN cells (anti-/pro-inflammatory), in words [2]: considerably more anti-inflammatory capabilities than any of the fractions of SOLARPLAST®

CC1=C(/C=C/C(C)=C/C=C/C(C)=C/C=C/C=C(C)/C=C/C=C(C)/C=C/C2=C(C)C(=O)[C@@H](O)CC2(C)C)C(C)(C)C[C@H](O)C1=O [Astaxanthin]
Total antioxidant capacity [1]: 2 mg GAE per gram
effect on ROS formation by PMN cells (anti-/pro-inflammatory), in words [2]: less anti-inflammatory capacity than the SOLARPLAST® post-aqueous fraction
